From article PMC7601413, “Protein Disulphide Isomerase A1 Is Involved in the Regulation of Breast Cancer Cell Adhesion and Transmigration via Lung Microvascular Endothelial Cells” (Cancers, 2020)
pIC50: −log10 of the molar value.

Experiments:
PDIA3 = target: T1, PDIA3 (Homo sapiens, UniProt P30101); assay: insulin reduction turbidimetric assay with recombinant enzyme; assay type: biochemical; settings: read-out: Enzymatic Activity, % of Initial / PDIA3
T1 construct: recombinant, 25-505aa, His-tag, E. coli
T1 sequence (P30101 25-505): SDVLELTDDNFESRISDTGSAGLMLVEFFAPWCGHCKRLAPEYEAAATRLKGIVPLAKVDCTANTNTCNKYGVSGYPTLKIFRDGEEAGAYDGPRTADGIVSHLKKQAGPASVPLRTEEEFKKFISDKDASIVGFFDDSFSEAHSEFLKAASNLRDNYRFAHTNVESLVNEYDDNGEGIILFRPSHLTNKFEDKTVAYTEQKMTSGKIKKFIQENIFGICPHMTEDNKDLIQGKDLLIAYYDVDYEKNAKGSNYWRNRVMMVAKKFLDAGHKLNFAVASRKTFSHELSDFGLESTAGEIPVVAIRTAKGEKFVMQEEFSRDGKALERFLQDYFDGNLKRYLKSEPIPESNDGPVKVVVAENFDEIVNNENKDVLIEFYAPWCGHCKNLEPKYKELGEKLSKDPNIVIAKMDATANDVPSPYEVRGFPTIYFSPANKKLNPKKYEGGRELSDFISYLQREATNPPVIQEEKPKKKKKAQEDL

[1] = target: T2, PDIA1 (protein disulphide isomerase A1) (Homo sapiens, UniProt P07237); assay: as above; assay type: biochemical; settings: read-out: Enzymatic Activity, % of Initial / PDIA1
T2 construct: gene P4HB; recombinant, full length, 18-508aa, His-tag, E. coli
T2 sequence (P07237 18-508): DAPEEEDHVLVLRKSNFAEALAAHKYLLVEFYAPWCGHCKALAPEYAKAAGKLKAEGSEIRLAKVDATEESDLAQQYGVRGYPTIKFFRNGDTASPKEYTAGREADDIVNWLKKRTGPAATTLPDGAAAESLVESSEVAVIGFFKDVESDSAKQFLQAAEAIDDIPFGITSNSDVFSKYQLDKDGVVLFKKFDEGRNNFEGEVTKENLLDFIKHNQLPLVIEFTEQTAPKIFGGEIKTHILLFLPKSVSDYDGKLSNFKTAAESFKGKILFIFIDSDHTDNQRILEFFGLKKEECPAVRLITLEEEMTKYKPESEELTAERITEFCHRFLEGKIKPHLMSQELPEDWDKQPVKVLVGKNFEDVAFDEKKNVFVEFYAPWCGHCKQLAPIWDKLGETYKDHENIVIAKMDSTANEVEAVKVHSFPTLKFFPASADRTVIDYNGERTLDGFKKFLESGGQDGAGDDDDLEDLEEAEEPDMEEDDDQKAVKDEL

- pIC50 (PDIA3): 3.90
- pIC50 [1]: 5.68
Substance: bepristat 2a
